Laboratory results as given in patent publication US5932545A, “Antiangiogenic drug to treat cancer, arthritis and retinopathy” (Abbott Laboratories, priority 1998, dated 1999).
Square brackets hold non-standard residues; d marks the D form. Ends that are not written are not given here. Peptide text beside a SMILES is read from it.

Key:
[1] = system: rat corneal neovascularization; test: rat corneal neovascularization assay (hydron pellets, peptide alone or with bFGF); format: in vivo; details: 7 days
Experimental: Inhibition of angiogenesis in vivo was measured using a rat corneal neovascularization assay. Accordingly, 6% hydron pellets containing peptide alone or in combination with 0.15 μM bFGF were implanted in rat corneas 1-1.5 mm from the limbus. at 7 days, the rats were sacrificed, perfused with colloidal carbon to visualize vessels and the corneas were extracted. Vigorous vessel ingrowth was scored as a positive angiogenic response. Induction control indicates response to 0.15 μM bFGF alone.

[2] = system: bovine capillary (adrenal) endothelial cells (BCE); test: endothelial cell migration assay (modified Boyden chamber); format: cell-based; details: 4 hours at 37° C., read-out: IC50, effect on endothelial cell migration
Experimental: The effect of the peptides of the invention on endothelial cell migration was determined in vitro using the endothelial cell migration assay. This assay was performed essentially as described by Polverini, P. J. et al., Methods Enzymol, 198: 440-450 (1991). Briefly, bovine capillary (adrenal) endothelial cells (BCE, supplied by Judah Folkman, Harvard University Medical School) were starved overnight in DMEM containing 0.1% bovine serum albumin (BSA). Cells were then harvested with trypsin and resuspended in DMEM with 0.1% BSA at a concentration of 1.5×10^6cells/mL. Cells were added to the bottom of a 48-well modified Boyden chamber (Nucleopore Corporation, Cabin John, Md.). The chamber was assembled and inverted, and cells were allowed to attach for 2 hours at 37° C. to polycarbonate chemotaxis membranes (5 μm pore size) that had been soaked in 0.1 % gelatin overnight and dried. The chamber was then reinverted and test compounds were added to the wells of the upper chamber (to a total volume of 50 μL); the apparatus was then incubated for 4 hours at 37° C. Membranes were recovered, fixed and stained (DiffQuick, Fisher Scientific, Pittsburgh, Pa.) and the number of cells that had migrated to the upper chamber per 10 high power fields were counted. Background migration to DMEM+0.1% BSA was subtracted and the data reported as the number of cells migrated per 10 high power fields (400×) or when results from multiple experiments were combined, as the percent of maximal migration compared to a simultaneous positive control.

[3] = system: cultured endothelial cells; details: background, Tolsma et al. 1993; cited from earlier work
[4] = system: rat cornea neovascularization; details: background, Tolsma et al. 1993; cited from earlier work

## CC[C@@H](C)[C@@H](NC(=O)[C@@H](NC(=O)CNC(C)=O)C(C)C)C(=O)N[C@H](C(=O)N[C@@H](CCCNC(=N)N)C(=O)N[C@H](C(=O)N[C@@H](CCCNC(=N)N)C(N)=O)[C@@H](C)CC)[C@@H](C)O [Ac-Gly-Val-D-Ile-Thr-Arg-Ile-Arg-NH2] (Ac-GV[dI]TRIR-NH2)
[1]; 0.1 μM peptide + 0.15 μM bFGF
  Positive Corneas/Total Implanted, Tested + bFGF: 1/3
[1]; 0.1 μM peptide alone
  Positive Corneas/Total Implanted, Tested Alone: 0/3
[1]; 1 μM peptide + 0.15 μM bFGF
  Positive Corneas/Total Implanted, Tested + bFGF: 0/2
[1]; 1 μM peptide alone
  Positive Corneas/Total Implanted, Tested Alone: 0/1
[1]; 20 μM peptide + 0.15 μM bFGF
  Positive Corneas/Total Implanted, Tested + bFGF: 0/2
[1]; 20 μM peptide alone
  Positive Corneas/Total Implanted, Tested Alone: 0/4
[2]
  IC50: 7 nM

## CCNC(=O)[C@H](CCCNC(=N)N)NC(=O)[C@@H](NC(=O)[C@H](CCCNC(=N)N)NC(=O)[C@@H](NC(=O)[C@H](NC(=O)[C@@H](NC(=O)CNC(C)=O)C(C)C)[C@H](C)CC)[C@@H](C)O)[C@@H](C)CC [Ac-Gly-Val-D-Ile-Thr-Arg-Ile-Arg-NHEt, Ac-Gly-Val-D-Ile-Thr-Arg-Ile-Arg-NHCH2 CH3] (Ac-GV[dI]TRIR-NHEt)
[2]
  IC50: 0.67 nM

## CCNC(=O)[C@H](CCCNC(=N)N)NC(=O)[C@@H](NC(=O)[C@H](CCCNC(=N)N)NC(=O)[C@@H](NC(=O)[C@H](NC(=O)[C@@H](NC(=O)CNC(=O)[C@H](Cc1ccc(O)cc1)NC(C)=O)C(C)C)[C@H](C)CC)[C@@H](C)O)[C@@H](C)CC [Ac-Tyr-Gly-Val-D-Ile-Thr-Arg-Ile-Arg-NHCH2 CH3] (Ac-YGV[dI]TRIR-NHEt)
[2]
  IC50: 50 nM

## CC[C@@H](C)[C@@H](NC(=O)[C@@H](NC(=O)CNC(=O)[C@H](CC(=O)O)NC(=O)CNC(=O)[C@H](C)NC(=O)[C@@H](NC(=O)[C@@H](NC(=O)[C@H](CO)NC(=O)[C@H](C)NC(=O)[C@H](CO)NC(=O)[C@@H](CO)NC(=O)[C@H](Cc1c[nH]c2ccccc12)NC(=O)[C@@H]1CCCN1C(=O)[C@@H](N)CO)C(C)C)[C@@H](C)O)C(C)C)C(=O)N[C@H](C(=O)N[C@@H](CCCNC(=N)N)C(=O)N[C@H](C(=O)N[C@@H](CCCNC(=N)N)C(=O)O)[C@@H](C)CC)[C@@H](C)O [Ser-Pro-Trp-D-Ser-Ser-Ala-Ser-Val-Thr-Ala-Gly-Asp-Gly-Val-D-Ile-Thr-Arg-Ile-Arg] (H-SPW[dS]SASVTAGDGV[dI]TRIR-OH)
[1]; peptide + 0.15 μM bFGF, peptide concentration not given
  Positive Corneas/Total Implanted, Tested + bFGF: 0/3
[1]; peptide alone in hydron pellet, concentration not given
  Positive Corneas/Total Implanted, Tested Alone: 0/3

## CC[C@@H](C)[C@@H](NC(=O)[C@@H](NC(=O)CNC(=O)[C@H](CC(=O)O)NC(=O)CNC(=O)[C@H](C)NC(=O)[C@@H](NC(=O)[C@@H](NC(=O)[C@H](CO)NC(=O)[C@H](C)NC(=O)[C@@H](CO)NC(=O)[C@H](CO)NC(=O)[C@H](Cc1c[nH]c2ccccc12)NC(=O)[C@@H]1CCCN1C(=O)[C@@H](N)CO)C(C)C)[C@@H](C)O)C(C)C)C(=O)N[C@H](C(=O)N[C@@H](CCCNC(=N)N)C(=O)N[C@H](C(=O)N[C@@H](CCCNC(=N)N)C(=O)O)[C@@H](C)CC)[C@@H](C)O [Ser-Pro-Trp-Ser-D-Ser-Ala-Ser-Val-Thr-Ala-Gly-Asp-Gly-Val-D-Ile-Thr-Arg-Ile-Arg] (H-SPWS[dS]ASVTAGDGV[dI]TRIR-OH)
[2]
  IC50: 0.9 nM

## CC[C@H](C)[C@H](NC(=O)[C@H](CCCNC(=N)N)NC(=O)[C@@H](NC(=O)[C@@H](NC(=O)[C@@H](NC(=O)CNC(=O)[C@H](CC(=O)O)NC(=O)CNC(=O)[C@H](C)NC(=O)[C@@H](NC(=O)[C@@H](NC(=O)[C@H](CO)NC(=O)[C@H](C)NC(=O)[C@@H](CO)NC(=O)[C@H](CO)NC(=O)[C@H](Cc1c[nH]c2ccccc12)NC(=O)[C@@H]1CCCN1C(=O)[C@@H](N)CO)C(C)C)[C@@H](C)O)C(C)C)[C@@H](C)CC)[C@@H](C)O)C(=O)N[C@@H](CCCNC(=N)N)C(=O)O [Ser-Pro-Trp-Ser-D-Ser-Ala-Ser-Val-Thr-Ala-Gly-Asp-Gly-Val-Ile-Thr-Arg-Ile-Arg] (H-SPWS[dS]ASVTAGDGVITRIR-OH)
[2]
  IC50: 0.9 nM

## CC[C@@H](C)[C@@H](NC(=O)[C@@H](NC(=O)CNC(=O)[C@H](CC(=O)O)NC(=O)CNC(=O)[C@H](C)NC(=O)[C@@H](NC(=O)[C@@H](NC(=O)[C@H](CO)NC(=O)[C@H](C)NC(=O)[C@H](CO)NC(=O)[C@H](CO)NC(=O)[C@H](Cc1c[nH]c2ccccc12)NC(=O)[C@@H]1CCCN1C(=O)[C@@H](N)CO)C(C)C)[C@@H](C)O)C(C)C)C(=O)N[C@H](C(=O)N[C@@H](CCCNC(=N)N)C(=O)N[C@H](C(=O)N[C@@H](CCCNC(=N)N)C(=O)O)[C@@H](C)CC)[C@@H](C)O [Ser-Pro-Trp-Ser-Ser-Ala-Ser-Val-Thr-Ala-Gly-Asp-Gly-Val-D-Ile-Thr-Arg-Ile-Arg] (H-SPWSSASVTAGDGV[dI]TRIR-OH)
[2]
  IC50: 10 nM

## SPWSSASVTAGDGVITRIR [MalII, 19-mer synthetic peptide mimicking properdin-like repeat region 1 of TSP1]
[3]
  ED50, inhibition of the migration of cultured endothelial cells: about 1 μM
[4]
  neovascularization in vivo in the rat cornea: blocked neovascularization in vivo in the rat cornea
